In patent US5767126A, “Alzheimer's disease treatment with tacrine metabolites” (priority 1991, dated 1998):

Biological target: T1, acetylcholinesterase (Homo sapiens, UniProt P22303)
Test: Acetylcholinesterase inhibition, photometric method of Ellman
Assay type: biochemical
Details: pI is a logarithmic measure of capacity to prevent the action of acetylcholinesterase, read-out: Cholinesterase inhibition pI (converted)

T1 sequence (P22303 32-614): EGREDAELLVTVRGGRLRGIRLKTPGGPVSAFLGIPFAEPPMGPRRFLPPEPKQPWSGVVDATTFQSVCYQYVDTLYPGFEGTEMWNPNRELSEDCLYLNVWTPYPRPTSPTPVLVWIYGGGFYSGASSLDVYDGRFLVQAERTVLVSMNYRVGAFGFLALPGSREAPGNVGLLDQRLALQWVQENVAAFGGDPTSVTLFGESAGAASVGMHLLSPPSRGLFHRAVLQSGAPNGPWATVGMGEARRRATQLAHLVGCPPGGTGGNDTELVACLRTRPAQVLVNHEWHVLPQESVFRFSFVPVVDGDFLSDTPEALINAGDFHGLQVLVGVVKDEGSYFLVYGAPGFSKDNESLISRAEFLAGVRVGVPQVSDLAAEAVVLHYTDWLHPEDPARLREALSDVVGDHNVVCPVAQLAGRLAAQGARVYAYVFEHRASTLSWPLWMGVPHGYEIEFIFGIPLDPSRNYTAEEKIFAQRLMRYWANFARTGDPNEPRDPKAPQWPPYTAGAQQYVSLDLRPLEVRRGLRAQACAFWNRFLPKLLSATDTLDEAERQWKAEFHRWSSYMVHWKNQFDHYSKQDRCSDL

| SMILES | IC50 |
| --- | --- |
| Nc1c2c(nc3ccccc13)C(=O)CC(O)C2O (stereo not drawn) [9-amino-1,2-dihydroacridin-1,2-diol 4(3H)-one] | 501 nM |
| Nc1c2c(nc3ccccc13)C(O)C(O)C(O)C2O (stereo not drawn) [9-amino-1,2,3,4-tetrahydroacridin 1,2,3,4-tetraol] | 158 nM |
| Nc1c2c(nc3ccccc13)C(O)C(O)CC2 (stereo not drawn) [9-amino-1,2,3,4-tetrahydroacridin-3,4-diol] | 200 nM |
| Nc1c2c(nc3ccccc13)CCC(O)C2O (stereo not drawn) [9-amino-1,2,3,4-tetrahydroacridin-1,2-diol] | 1260 nM |
| Nc1c2ccccc2nc2c(O)ccc(O)c12 [9-amino-1,4-dihydroxyacridine] | 316 nM |
| Nc1c2c(nc3ccccc13)C=CC(O)C2O (stereo not drawn) [9-amino-1,2-dihydroacridin-1,2-diol] | 631 nM |
| Nc1c2ccccc2nc2c(O)cc(O)cc12 [9-amino-2,4-dihydroxyacridine] | 158 nM |
| Nc1c2c(nc3ccccc13)C(O)C(O)C(O)C2 (stereo not drawn) [9-amino-1,2,3,4-tetrahydroacridin-2,3,4-triol] | 126 nM |

Biological target: T1, acetylcholinesterase
Test: not given
Details: figure obtained from the study by P. N. Kaul (J. Pharm. Pharmacol. 1962); cited from earlier work

| SMILES | Cholinesterase inhibition pI |
| --- | --- |
| Nc1ccnc2ccccc12 [4-aminoquinoline] | 4.3 |
